# Reference: article PMC4267990 (Journal of controlled release : official journal of the …, 2014)
# Where two headings read alike, the source gives them in different places.
# Assays:
# 4T1.2 cells = experiment: In vitro cytotoxicity, MTT assay; type: cell-based, mouse; settings: 72 h, DOX concentration
# PC-3 xenograft tumor = experiment: In vivo antitumor efficacy, PC-3 human prostate cancer xenograft; design: species or system male nude mice; settings: 5 mg/kg i.v. on days 1, 4, 7; based on RTV on day 19
# [1] = DOX pharmacokinetics after i.v. administration; settings: 5 mg DOX/kg
# [2] = single i.v.; for Animal death: dead/treated mice
# [3] = In vitro DOX cumulative release kinetics by dialysis; type: physicochemical; settings: DPBS pH 7.4 with 0.5% Tween 80, 37 °C, 1 mg DOX/mL
# KB 8-5 xenograft tumor = experiment: In vivo antitumor efficacy, drug-resistant KB 8-5 xenograft; design: species or system female nude mice; settings: for Tumor growth inhibition rate IR: based on RTV on day 22
# 4T1.2 tumor = experiment: In vivo antitumor efficacy, 4T1.2 syngeneic murine breast cancer model; design: species or system female BALB/c mice; settings: 10 mg DOX/kg i.v., three consecutive injections
# NCI/ADR-RES cells = experiment: Intracellular uptake of DOX; type: cell-based; settings: 6 μg/mL DOX, 1 h (similar at 3 h)
smiles,measurement,setting,value
"COc1cccc2c1C(=O)c1c(O)c3c(c(O)c1C2=O)C[C@@](O)(C(=O)CO)C[C@@H]3O[C@H]1C[C@H](N)[C@H](O)[C@H](C)O1 [DOX, Doxorubicin]",IC50,4T1.2 cells,0.1867 µg/mL
same,Tumor growth inhibition rate IR,PC-3 xenograft tumor,38.72%
same,AUC,[1],5430 ± 110 ng·h/mL
same,CL,[1],18.40 ± 2.39 mL/h
same,Vd,[1],25.32 ± 2.15 mL
same,t1/2,[1]; non-compartment model,4.20 ± 0.35 h
same,Weight loss,[2]; 5 mg/kg,2.2%
same,Animal death,[2]; 5 mg/kg,0/3
same,Weight loss,[2]; 10 mg/kg,7.8%
same,Animal death,[2]; 10 mg/kg,0/3
same,Animal death,[2]; 15 mg/kg,2/3
same,Animal death,"[2]; 15 mg/kg, listed as free DOX",2 out of 3
same,amount of released DOX,[3]; after 74 h,96.35%
same,DOX released,[3]; first 9 h,92.14%
same,Tumor growth inhibition rate IR,"KB 8-5 xenograft tumor; 5 mg/kg i.v. on days 1, 4, 7",6.13%
same,Tumor growth inhibition rate IR,"KB 8-5 xenograft tumor; 7.5 mg/kg i.v. on days 1, 4, 7",20.91%
same,body weight change,"KB 8-5 xenograft tumor; 5 and 7.5 mg/kg i.v. on days 1, 4, 7",significant weight loss
same,mortality from systemic toxicity,4T1.2 tumor,all of the mice treated with free DOX died from systemic toxicity on day 7
same,DOX fluorescence signals in cells (confocal imaging),NCI/ADR-RES cells,Least amounts of fluorescence signals
